# Non-standard residues stand in square brackets, D forms with d. pGlu = O=C1CC[C@@H](C(=O)O)N1
# Columns and labels:
# Assay type in all cases: cell-based, human
# [1] = system: PBMC; experiment: IFN-gamma ELISpot of PBMC, Day-6 after gluten challenge (Example 1); settings: DQ2.5+ CD
# [2] = system: whole blood; experiment: 96-well plate whole blood multiplex cytokine release, IFNγ (MAGPIX bead assay, Example 2); settings: Day-6, n = 8
# [3] = system: whole blood; experiment: 96-well plate whole blood multiplex cytokine release, IP-10 (MAGPIX bead assay, Example 2); settings: for IP-10 WB MAGPIX % max Mean: Day-6, n = 10; for Percent of maximal response, IP-10: after oral gluten challenge
# [4] = system: PBMC; experiment: Overnight IFNγ ELISpot assay with fresh PBMC (Example 2); settings: Day-6, n = 5
# Description: Ten HLA-DQ2.5+ adults with celiac disease diagnosed according to the National Institutes of Health Consensus Statement 2004 were enrolled (Table 7).^22 Subjects were required to have followed gluten-free diet for at least one year and without known gluten exposures within the previous two-months. […] Full inclusion and exclusion criteria are described in Table 8. Each of 3 consecutive days subjects consumed 3 cookies that were prepared from approximately 4.5 g wheat gluten, 3 g barley flour protein, and 1.5 g rye flour protein. Blood was collected before and six days after commencing the oral challenge. Blood was collected using a 21G butterfly needle directly into 10 mL lithium heparin tubes (BD Vacutainer® Heparin tube #367880) and QuantiFERON® NIL (0591-0205, Cellestis Ltd., Chadstone VIC 3148 Australia) and QuantiFERON® MITOGEN (0593-0201, Cellestis Ltd.).
# Overnight IFNγ ELISpot assays (Human IFN-γ ELISpotPRO kit, transparent, ALP; Mabtech AB, #3420-2APT-10) were performed using PBMC freshly separated from heparinized blood diluted 1:1 in PBS with 2% fetal bovine serum (Stemcell Technologies #07905; Vancouver, BC, V5Z 1B3, Canada) overlaid on density gradient medium (Ficoll-Paque™ PLUS; GE Healthcare Lice Sciences #:17-1440-02) in SepMate™-50 tubes (Stemcell Technologies #15460). PBMC (8 million/mL) were resuspended in serum-free medium with gentamicin and phenol red (X-VIVO™15; Lonza, Walkersville Mass. 21793). PBMC (0.4 million/50 μL/well) and incubated with 50 μL 80% X-vivol5, 0.2% DMSO and 20% PBS in three triplicate wells (“medium only”), or with 50 μL PHA-L 20 μg/ml or peptide at 2× final concentration in 80% X-vivol5, 0.2% DMSO and 20% PBS. Peptide solutions to be added to individual ELISpot wells were prepared in 96-well U-bottom plates (60 μL/well) that were then sealed with adhesive ELISA plate cover slips before replacing the plastic lid and being frozen at −80° C. 96-well plates containing peptide solutions were thawed at room temperature for 10 min while being centrifuged at 300 g immediately prior to being added to ELISpot wells. Peptide pools and mitogen were assessed in triplicate wells, and individual peptides were assessed in duplicate wells. X-VIVO™15 (50 μL) was incubated with 80% X-vivol5, 0.2% DMSO and 20% PBS (50 μL) in triplicate wells (“no PBMC” control). A Zeiss automated ELISpot counter was used to determine spot forming units (SFU) per well (Zellnet Inc., Fort Lee, N.J. 07024). Laboratory staff were unaware of the arrangement of peptide solutions in ELISpot wells during assay setup and plate counting.
# [5] = system: gluten-reactive T cells; experiment: Cytokine release assays taken together (IFNγ ELISpot, whole blood IFNγ and IP-10 release); settings: three cytokine release assays
# Description: Gluten peptide solutions for addition to whole blood were arranged according to standardized templates in sterile 96-well U-bottom plates (30 μL/well). Plates were sealed with adhesive ELISA plate cover slips before the plastic lid was replaced and being frozen at −80° C. Whole blood assay (WBA) “medium” (1% DMSO in 90% PBS and 9% normal saline), mitogen (PHA-L, Sigma-Aldrich #L2769; St Louis Mo.) 100 μg/ml in WBA medium, and CEF diluted to 10 μg/ml in PBS with a final concentration of 1% DMSO were frozen separately in sterile cryovials. 96-well plates and cryovials with frozen incubation solutions were shipped on dry ice to the clinical site where blood was collected and incubations performed. Solutions were thawed at room temperature for 10 min just before being added to whole blood. 96-well plates were thawed while being centrifuged at 300 g to avoid surface condensation. A multi-channel pipette was used to efficiently transfer 25 μL of peptide solutions from the original 96-well plate to corresponding wells in a fresh sterile 96-well U-bottom plate. Once incubation solutions had been added, 225 μL of whole blood was added to each well and the plate transferred to incubate for 24 h at 37° C. 5% CO2. […] Individual peptides were incubated at a final assay concentration of 5 μM. Final concentrations of individual peptides assessed in P3 was 0.05-50 μg/mL, and in P14 and P13 pools 0.025-25 μM. The P71 pool was tested at between 0.005-10 μg/mL, the highest tested concentration being the maximal possible not exceeding 0.1% DMSO. Peptide pools, mitogen, and medium only were assessed in triplicate wells, and on Day-6 individual peptides were assessed in duplicate wells. Incubations were terminated after 24 h, and 96-well plates centrifuged at 300 g for 10 min. A total of approximately 90 to 120 μL of plasma was removed from each well taking care to avoid red cell contamination, and transferred into corresponding wells of two further 96-well plates (one with 30 μL/well and the residual in the second plate). Plasmas were frozen at −80° C. and later shipped on dry ice to the central lab where IP-10 and IFNγ multiplex bead assays were performed according to manufacturer's instructions using 25 μL plasma per well (Milliplex® MAP Human Cytokine/Chemokine Magnetic Bead Panel #HCYTOMAG-60k-02; EMD Millipore Corp., Billerica, Mass. 01821) and analysed with the Luminex® MAGPIX® System xPONENT® software (Luminex Corporation, Austin Tex. 78727). Plasma cytokine levels for each assay condition were expressed as the mean analyte concentration of each of the three replicate incubations. Laboratory staff were unaware of the arrangement of peptide solutions incubated with during assay setup and plate counting. […]
# [6] = Peptide 2 re-synthesised by Pepscan, 10 μg/mL (5.45 μM)
# [7] = individual peptides 5 μM, Peptide 2 = CSBio batch
substance,measurement,setting,value
"(pE)QPFPQPEQPFPWQP-amide ([pGlu]QPFPQPEQPFPWQP-NH2; SMILES NC(=O)CC[C@H](NC(=O)[C@H](Cc1c[nH]c2ccccc12)NC(=O)[C@@H]1CCCN1C(=O)[C@H](Cc1ccccc1)NC(=O)[C@@H]1CCCN1C(=O)[C@H](CCC(N)=O)NC(=O)[C@H](CCC(=O)O)NC(=O)[C@@H]1CCCN1C(=O)[C@H](CCC(N)=O)NC(=O)[C@@H]1CCCN1C(=O)[C@H](Cc1ccccc1)NC(=O)[C@@H]1CCCN1C(=O)[C@H](CCC(N)=O)NC(=O)[C@@H]1CCC(=O)N1)C(=O)N1CCC[C@H]1C(N)=O) [Peptide 2, CSBio and Pepscan batches tested separately]",Peptide-specific IFN-gamma ELISpot response,"[1]; Subject 1, 10 ug/ml",0 spot forming units per 0.8 million PBMC
same,Peptide-specific IFN-gamma ELISpot response,"[1]; Subject 2, 10 ug/ml",1 spot forming units per 0.8 million PBMC
same,Peptide-specific IFN-gamma ELISpot response,"[1]; Subject 3, 10 ug/ml",2 spot forming units per 0.8 million PBMC
same,Peptide-specific IFN-gamma ELISpot response,"[1]; Subject 4, 10 ug/ml",17 spot forming units per 0.8 million PBMC
same,Peptide-specific IFN-gamma ELISpot response,"[1]; Subject 5, 10 ug/ml",0 spot forming units per 0.8 million PBMC
same,Peptide-specific IFN-gamma ELISpot response,"[1]; Subject 6, 10 ug/ml",2 spot forming units per 0.8 million PBMC
same,Peptide-specific IFN-gamma ELISpot response,"[1]; Subject 7, 10 ug/ml",2 spot forming units per 0.8 million PBMC
same,Peptide-specific IFN-gamma ELISpot response,"[1]; Subject 8, 10 ug/ml",4 spot forming units per 0.8 million PBMC
same,Peptide-specific IFN-gamma ELISpot response,"[1]; Subject 9, 10 ug/ml",1 spot forming units per 0.8 million PBMC
same,Peptide-specific IFN-gamma ELISpot response,"[1]; Subject 10, 10 ug/ml",0 spot forming units per 0.8 million PBMC
same,IFNγ WB MAGPIX % max Mean,[2]; [6],27 % max
same,IFNγ WB MAGPIX % max Mean,[2]; [7],23 % max
same,IP-10 WB MAGPIX % max Mean,[3]; [6],49 % max
same,"Percent of maximal response, IP-10","[3]; Subject 3, Max. 9492 pg/mL",≥ 100 % of max
same,"Percent of maximal response, IP-10","[3]; Subject 4, Max. 9463 pg/mL",≥ 100 % of max
same,IP-10 WB MAGPIX % max Mean,[3]; [7],43 % max
same,IFNγ ELISpot % max Mean,[4]; [6],25 % max
same,IFNγ ELISpot % max Mean,[4]; [7],19 % max
same,activity as a fraction of that of Peptide 14,[5],one-half to one-fifth
